Laboratory results: paper PMC6675791, “Clozapine-dependent inhibition of EGF/neuregulin receptor (ErbB) kinases” (Translational Psychiatry, 2019)

Columns and labels:
Assay in all cases: in vitro kinase assay (ELISA, Tyr-Glu heteropolymer substrate, […] ATP, […] Triton X-100)
Assay type in all cases: biochemical
ErbB2 kinase = biological target: T1, ErbB2 kinase (Homo sapiens, UniProt P04626)
T1 construct: recombinant truncated ErbB2 kinase (intracellular domain, lacking the extracellular domain)
T1 sequence (P04626 676-1255 limits assumed): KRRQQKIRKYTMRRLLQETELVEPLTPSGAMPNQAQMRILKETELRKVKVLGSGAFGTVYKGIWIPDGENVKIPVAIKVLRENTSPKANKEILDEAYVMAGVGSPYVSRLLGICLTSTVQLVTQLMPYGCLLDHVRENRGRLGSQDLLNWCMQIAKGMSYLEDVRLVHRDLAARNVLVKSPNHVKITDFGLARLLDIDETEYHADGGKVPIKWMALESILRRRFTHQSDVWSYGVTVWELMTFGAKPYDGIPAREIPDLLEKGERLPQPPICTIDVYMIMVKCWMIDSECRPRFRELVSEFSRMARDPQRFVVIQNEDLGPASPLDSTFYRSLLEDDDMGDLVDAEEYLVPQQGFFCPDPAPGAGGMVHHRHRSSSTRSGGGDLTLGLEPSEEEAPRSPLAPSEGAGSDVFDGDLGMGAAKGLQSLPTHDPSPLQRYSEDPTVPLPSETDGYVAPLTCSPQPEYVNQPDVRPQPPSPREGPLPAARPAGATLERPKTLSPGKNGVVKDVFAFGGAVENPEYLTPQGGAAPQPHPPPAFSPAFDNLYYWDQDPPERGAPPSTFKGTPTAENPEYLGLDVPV

ErbB4 kinase = biological target: T2, ErbB4 kinase (Homo sapiens, UniProt Q15303)
T2 construct: recombinant truncated ErbB4 kinase (intracellular domain, lacking the extracellular domain)
T2 sequence (Q15303 676-1308 limits assumed): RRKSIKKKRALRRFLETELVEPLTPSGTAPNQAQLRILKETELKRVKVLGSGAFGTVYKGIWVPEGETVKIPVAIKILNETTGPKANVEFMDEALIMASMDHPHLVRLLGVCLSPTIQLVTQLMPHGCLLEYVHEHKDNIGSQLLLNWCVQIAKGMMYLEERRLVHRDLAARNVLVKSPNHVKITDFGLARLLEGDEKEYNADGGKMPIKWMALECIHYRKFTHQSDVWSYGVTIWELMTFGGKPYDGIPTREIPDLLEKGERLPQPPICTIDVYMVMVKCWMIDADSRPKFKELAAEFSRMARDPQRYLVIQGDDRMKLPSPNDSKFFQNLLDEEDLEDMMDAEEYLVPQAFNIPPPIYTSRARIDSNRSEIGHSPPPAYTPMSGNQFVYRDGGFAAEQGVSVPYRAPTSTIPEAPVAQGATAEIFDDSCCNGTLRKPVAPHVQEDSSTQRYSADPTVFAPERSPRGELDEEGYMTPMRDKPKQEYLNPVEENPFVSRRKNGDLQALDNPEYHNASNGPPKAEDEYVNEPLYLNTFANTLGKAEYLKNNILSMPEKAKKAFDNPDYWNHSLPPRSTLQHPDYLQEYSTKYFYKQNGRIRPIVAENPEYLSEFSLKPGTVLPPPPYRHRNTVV

ErbB1 kinase = biological target: T3, ErbB1 kinase (Homo sapiens, UniProt P00533)
T3 construct: gene EGFR; recombinant truncated ErbB1 kinase (intracellular domain, lacking the extracellular domain)
T3 sequence (P00533 669-1210 limits assumed): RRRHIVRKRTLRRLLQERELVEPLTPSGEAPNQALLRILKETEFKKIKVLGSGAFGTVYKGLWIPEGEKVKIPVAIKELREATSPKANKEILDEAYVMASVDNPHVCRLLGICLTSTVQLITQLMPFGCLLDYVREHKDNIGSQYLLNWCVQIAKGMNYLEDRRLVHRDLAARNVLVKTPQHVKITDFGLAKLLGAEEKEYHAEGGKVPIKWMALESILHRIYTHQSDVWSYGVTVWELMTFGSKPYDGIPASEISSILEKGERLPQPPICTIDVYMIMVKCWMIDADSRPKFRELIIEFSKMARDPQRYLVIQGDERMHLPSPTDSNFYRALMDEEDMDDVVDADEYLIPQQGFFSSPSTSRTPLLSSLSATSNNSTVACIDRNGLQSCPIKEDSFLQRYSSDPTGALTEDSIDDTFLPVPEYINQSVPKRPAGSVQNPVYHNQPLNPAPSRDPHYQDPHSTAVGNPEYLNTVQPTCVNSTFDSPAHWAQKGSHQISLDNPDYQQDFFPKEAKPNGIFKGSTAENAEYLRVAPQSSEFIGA

In the case of `CN1CCN(C2=Nc3cc(Cl)ccc3Nc3ccccc32)CC1` [CLZ, clozapine], the “in vitro kinase assay (ELISA, Tyr-Glu heteropolymer substrate, 4 mM ATP, 0.2% Tr)” value (ErbB2 kinase) is reported as 3 µM, the “in vitro kinase assay (ELISA, Tyr-Glu heteropolymer substrate, 4 mM ATP, 0.2% Tr)” value (ErbB4 kinase) is reported as 30 µM and the “in vitro kinase assay (ELISA, Tyr-Glu heteropolymer substrate, 4 mM ATP, 0.2% Tr)” value (ErbB1 kinase) is reported as 30 µM.
